Test results from US20240300886A1, “ARYLCYCLOHEXYLAMINE DERIVATIVES AND THEIR USE IN THE TREATMENT OF PSYCHIATRIC DISORDERS” (GILGAMESH PHARMACEUTICALS, INC., priority 2021, published 2024).
Where two headings read alike, the source gives them in different places.

Assays:
[1] = Metabolic stability in mouse liver microsomes (MLM); type: in vitro ADME, CD-1 mice; conditions: male, CD-1, mouse, pooled mouse liver microsomes, pH 7.4, 1 μM compound, 0.50 mg protein/mL, NADPH
Description: (§1) MLM Stability. Pooled MLM from male CD-1 mice (XenoTech M1000) were used. Microsomal incubations were carried out in multi-well plates. Liver microsomal incubation medium consisted of PBS (100 mM, pH 7.4), MgCl2 (1 mM), and NADPH (1 mM), with 0.50 mg of liver microsomal protein per mL. Control incubations were performed by replacing the NADPH-cofactor system with PBS. Test compounds (1 μM, final solvent concentration 1.0%) were incubated with microsomes at 37° C. with constant shaking. Six time points over 60 minutes were analyzed, with 60 μL aliquots of the reaction mixture being drawn at each time point. The reaction aliquots were stopped by adding 180 μL of cold (4° C.) acetonitrile containing 200 ng/mL tolbutamide and 200 ng/mL labetalol as internal standards (IS), followed by shaking for 10 minutes, and then protein sedimentation by centrifugation at 4,000 rpm for 20 minutes at 4° C. Supernatant samples (80 μL) were diluted with water (240 μL) and analyzed for parent compound remaining using a fit-for-purpose liquid chromatography-tandem mass spectrometry (LC-MS/MS) method.
Data Analysis. The elimination constant (kel), half-life (t1/2) and intrinsic clearance (Clint) were determined in a plot of ln(AUC) versus […], using linear regression analysis.

[2] = Metabolic stability in human liver microsomes (HLM); type: in vitro ADME; conditions: 0.50 mg protein/mL, NADPH; for Clint: 1 μM compound; for half-life at 1 μM: both sexes, human, pooled human liver microsomes, pH 7.4, 1 μM compound
Description: HLM Stability. Pooled HLM from adult male and female donors (Corning 452117) were used. Microsomal incubations were carried out in multi-well plates. Liver microsomal incubation medium consisted of PBS (100 mM, pH 7.4), MgCl2 (1 mM), and NADPH ([…]), with 0.50 mg of liver microsomal protein per mL. Control incubations were performed by replacing the NADPH-cofactor system with PBS. Test compounds (1 μM, final solvent concentration 1.0%) were incubated with microsomes at 37° C. with constant shaking, Six time points over 60 minutes were analyzed, with 60 μL aliquots of the reaction mixture being drawn at each time point. The reaction aliquots were stopped by adding 180 μL of cold (4° C.) acetonitrile containing 200 ng/mL tolbutamide and 200 ng/mL labetalol as internal standards (IS), followed by shaking for 10 minutes, and then protein sedimentation by centrifugation at 4,000 rpm for 20 minutes at 4° C. Supernatant samples (80 μL) were diluted with water (240 μL) and analyzed for parent compound remaining using a fit-for-purpose liquid chromatography-tandem mass spectrometry (LC-MS/MS) method.
(§2) Data Analysis. The elimination constant (kel), half-life (t1/2) and intrinsic clearance (Clint) were determined in a plot of […] versus time, using linear regression analysis.

[3] = Metabolic stability in rat liver microsomes (RLM); type: in vitro ADME, Sprague Dawley rats
Description: as §1, with “RLM” for “MLM”, “Sprague Dawley rats” for “CD-1 mice”, “R1000)” for “M1000)”
as §2

[4] = Comparative metabolism/PK of 2R and deuterated 7R in rats after oral administration; type: in vivo, Sprague Dawley rats; conditions: for concentration at 0.083 h / concentration at 0.25 h / concentration at 0.5 h / concentration at 1 h / concentration at 2 h / concentration at 4 h: oral; for concentration at 0.083 h: 0.083 h after 10 mg/kg po of 2R or 7R; for concentration at 0.25 h: 0.25 h after 10 mg/kg po of 2R or 7R; for concentration at 0.5 h: 0.5 h after 10 mg/kg po of 2R or 7R; for concentration at 1 h: 1 h after 10 mg/kg po of 2R or 7R; for concentration at 2 h: 2 h after 10 mg/kg po of 2R or 7R; for concentration at 4 h: 4 h after 10 mg/kg po of 2R or 7R
Description: Animals. Male Sprague Dawley rats were used in these studies. Animals were randomly assigned to treatment groups and were fasted for 4 h before dosing.
Drugs. Test compounds 2R and 7R were dissolved in a vehicle consisting of normal saline. They were then administered orally (po) at a dose of 10 mg/kg (calculated based on freebase), and at a volume of 5 mL/kg body weight.
Sample Collection and Bioanalysis. Blood samples (approximately 60 μL) were collected under light isoflurane anesthesia (Surgivet®) from the retro orbital plexus at 0.08, 0.25, 0.5, 1, 2, 4, 8, and 24 h (4 animals per time point). Immediately after blood collection, plasma was harvested by centrifugation at 4,000 rpm for 10 min at 4° C. and samples were stored at −70±10° C. until bioanalysis. Following blood collection, animals were immediately sacrificed, the abdominal vena-cava was cut open, and the whole body was perfused from the heart using 10 mL of normal saline, and brain samples were collected from all animals. After isolation, brain samples were rinsed three times in ice-cold normal saline (for 5-10 seconds/rinse using ˜5-10 mL normal saline in disposable petri dish for each rinse) and dried on blotting paper. Brain samples were homogenized using ice-cold phosphate-buffered saline (pH 7.4) Total homogenate volume was three times the tissue weight. All homogenates were stored at −70±10° C. until bioanalysis. For bioanalysis, 25 μL aliquots of plasma/brain study samples or spiked plasma/brain calibration standards were added to individual pre-labeled micro-centrifuge tubes followed by 100 μL of an internal standard solution (glipizide, 500 ng/mL in acetonitrile) except for blanks, where 100 μL of acetonitrile was added. Samples were vortexed for 5 minutes and then centrifuged for 10 minutes at 4,000 rpm at 4° C. Following centrifugation, 100 μL of each clear supernatant was transferred to a 96 well plate and analyzed with a fit-for-purpose LC-MS/MS method, with authentic samples of each analyte used for calibration and identification. Concentrations of parent compound (2R or 7R) and metabolite 1R were determined in all samples.
Data Analysis. Pharmacokinetic parameters were estimated using the non-compartmental analysis tool of Phoenix® WinNonlin software (Ver 8.0).

[5] = male, Sprague Dawley, rat, pooled rat liver microsomes, pH 7.4, 1 μM compound, 0.50 mg protein/mL, NADPH
[6] = male, Sprague Dawley, rat, brain, 10 mg/kg, rat brain, read-out: Mean brain concentration
[7] = male, Sprague Dawley, rat, plasma, 10 mg/kg, rat plasma, read-out: Mean plasma concentration
[8] = rat brain after 10 mg/kg po of 2R or 7R, parent or metabolite 1R as labelled

For `NC1(c2ccc(F)cc2)CCCCC1=O` (racemic) [Compound 1, 2-amino-2-(4-fluorophenyl)cyclohexan-1-one], which half-life at 1 μM [1] is on record?
Its half-life at 1 μM is over 2.42 h.

What about the microsomal CLint at 1 μM [1] of the same compound?
Its microsomal CLint at 1 μM is under 9.6 µL/min/mg.

What about the Clint [2] of the same compound?
Its Clint is under 9.6 μL/min/m.

And the half-life at 1 μM [2]?
The half-life at 1 μM was over 2.42 h.

And the “metabolic stability in RLM (in words)” value [3]?
Its value is “much greater stability”.

What about the half-life at 1 μM [3, 5] of the same compound?
The half-life at 1 μM was over 2.42 h.

And the microsomal CLint at 1 μM [3, 5]?
Its microsomal CLint at 1 μM is under 9.6 µL/min/mg.

Which results are given for `CNC1(c2ccc(F)cc2)CCCCC1=O` (racemic) [Compound 2]?
half-life at 1 μM [1]: 1.68 h; Clint [2]: <9.6 μL/min/m; half-life at 1 μM [2]: > 2.42 h; metabolic stability in RLM (in words) [3]: much greater stability; half-life at 1 μM [3, 5]: 1.18 h

With `NC1(c2cccc(F)c2)CCCCC1=O` (racemic) [Compound 3, 2-amino-2-(3-fluorophenyl)cyclohexan-1-one] as the compound, how does the “metabolic stability in RLM (in words)” value [3] read?
The value was “much greater stability”.

For `[2H]C([2H])([2H])N[C@@]1(c2ccc(F)cc2)CCCCC1=O` [Compound 7R], which concentration at 0.083 h [4, 6] is on record?
Its concentration at 0.083 h is 98 ng/g.

And the concentration at 0.25 h [4, 6]?
Its concentration at 0.25 h is 2090 ng/g.

What about the concentration at 0.5 h [4, 6] of the same compound?
Its concentration at 0.5 h is 2200 ng/g.

What about the concentration at 1 h [4, 6] of the same compound?
Its concentration at 1 h is 1770 ng/g.

And the concentration at 2 h [4, 6]?
The concentration at 2 h was 1420 ng/g.

What about the concentration at 4 h [4, 6] of the same compound?
Its concentration at 4 h is 236 ng/g.

And the half-life ([4]; male, Sprague Dawley, rat, brain, po, 10 mg/kg, rat brain after 10 mg/kg po of 2R or 7R, parent or metabolite 1R as labelled, read-out: t1/2 (brain))?
Its half-life is 1.12 h.

What about the concentration at 0.083 h [4, 7] of the same compound?
Its concentration at 0.083 h is 65 ng/mL.

What about the concentration at 0.25 h [4, 7] of the same compound?
Its concentration at 0.25 h is 502 ng/mL.

What about the concentration at 0.5 h [4, 7] of the same compound?
Its concentration at 0.5 h is 799 ng/mL.

And the concentration at 1 h [4, 7]?
Its concentration at 1 h is 564 ng/mL.

And the concentration at 2 h [4, 7]?
Its concentration at 2 h is 396 ng/mL.

And the concentration at 4 h [4, 7]?
Its concentration at 4 h is 68 ng/mL.

What about the Cmax ([4]; male, Sprague Dawley, rat, plasma, po, 10 mg/kg, rat plasma after 10 mg/kg po of 2R or 7R, parent or metabolite 1R as labelled) of the same compound?
The Cmax was 799 ng/mL.

And the AUC(0-t) ([4]; male, Sprague Dawley, rat, plasma, po, 10 mg/kg, rat plasma after 10 mg/kg po of 2R or 7R, parent or metabolite 1R as labelled, read-out: AUC0-last (plasma) (converted))?
Its AUC(0-t) is 1650 ng·h/mL.

What about the half-life ([4]; male, Sprague Dawley, rat, plasma, po, 10 mg/kg, rat plasma after 10 mg/kg po of 2R or 7R, parent or metabolite 1R as labelled, read-out: t1/2 (plasma)) of the same compound?
Its half-life is 1.08 h.

What about the “AUC0-last (brain)” value [4, 8] of the same compound?
Its value is 330347 ng·min/g.

What about the “Cmax (brain)” value [4, 8] of the same compound?
Its value is 2197 ng/g.

And the “exposure (AUC) in plasma and brain compared to non-deuterated 2R” value ([4]; rats, 10 mg/kg po)?
Its value is “greater exposure”.

Which half-life at 1 μM [3, 5] does the source give for `Cc1ccc(C2(N)CCCCC2=O)cc1` (centres unmarked) [Compound 10, 2-amino-2-(p-tolyl)cyclohexan-1-one] here?
The half-life at 1 μM was 0.06 h.

With `CNC1(c2ccc(C)cc2)CCCCC1=O` (centres unmarked) [Compound 11, 2-(methylamino)-2-(p-tolyl)cyclohexan-1-one] as the compound, how does the half-life at 1 μM [3, 5] read?
The half-life at 1 μM was 0.055 h.

For `Cc1cccc(C2(N)CCCCC2=O)c1` (centres unmarked) [Compound 12, 2-amino-2-(m-tolyl)cyclohexan-1-one], which half-life at 1 μM [3, 5] is on record?
The half-life at 1 μM was 0.12 h.
